Data reported in patent publication US20240315991A1, “USES OF HNF4 ALPHA AGONISTS” (Sanford Burnham Prebys Medical Discovery Institute, priority 2023, published 2024).
Entries after “also recorded” stand apart in the source; their conditions may differ.

Key:
SDHA = experiment: Western blotting of liver, SDHA; format: in vivo, mouse; conditions: HFD+NCT vs HFD, FIGS. 3D-3F
Experimental: (§1) NCT oral administration. Four-week-old male C57BL/6J (JAX cat #000664) mice were purchased from Jackson laboratory and were maintained in a 12 h light/dark cycle throughout the experiment. Prior to the experiments, mice were acclimated for 2 weeks. Six-week-old mice with similar body weights were randomized to a normal diet (NC), a high fat diet (HFD) (Research Diets, cat #D12492 60 kcal % fat) or HFD containing 4000 ppm NCT (HFD+NCT) (Research Diets, 60 kcal % fat+4000 ppm NCT), which was calculated to provide approximately 400 mg/kg/d NCT. HFD chow containing NCT was made with gray dye to distinguish it from regular HFD chow that had green dye. Mice for each treatment group were placed in separate cages. Equal amounts of fresh chow were provided every week to all mice. Body weight gain and food intake were measured every week for 10 weeks. After 10 weeks of chow treatment, mice were sacrificed for analysis. All animal experiments were approved by the Institutional Animal Care and Use Committee (IACUC) of the Sanford Burnham Prebys Medical Discovery Institute in accordance with national regulations. Sample size was chosen based on the prior study of NCT delivered by IP injection.
Western blotting. Mouse liver extracts were prepared by incubation in RIPA buffer (Invitrogen) containing protease inhibitors (Calbiochem, SanDiego, CA). Protein was quantified by BCA assay (Thermo Scientific). […]

[1] = system: mitochondrial fatty acid oxidation (FAO) activity; experiment: Fatty acid oxidation assay in liver lysate; format: in vivo, mouse
Experimental: as §1
Fatty acid oxidation assay. FAO in liver lysate was measured according to manufacturer's instructions using a calorimetric assay kit (Cat #E-141, Biomedical Research Service Center, State University of New York, Buffalo, NY).
Thus, the effect of NCT on FAO appeared to be a secondary rather than primary effect.

cytochrome C mRNA = experiment: RT-PCR of mouse liver, cytochrome C; format: in vivo; conditions: HFD vs. HFD+NCT, FIG. 3G
Experimental: as §1, with “All animal experiments were approved by the Institutional Animal Care and Use Committee (IACUC) of the Sanford Burnham Prebys Medical Discovery Institute in accordance with national regulations. Sample size was chosen based on the prior study of NCT delivered by IP injection.” left out
(§2) RT-PCR. […] Quantitative real time PCR (RT-PCR) analysis was performed using SYBR® Select Master Mix (Applied Biosystems) and an ABI 7900HT thermal cycler (Applied Biosystems, Thermo Fisher Scientific). Ct values were normalized to 18s rRNA and are expressed as fold change over samples from mice fed NC or cultured human hepatocytes without NCT.

IL-6 mRNA = experiment: RT-PCR of primary human hepatocytes, IL-6; format: cell-based; conditions: HEP-fat media, NCT 5, 15, and 40 μM, FIG. 5E
Experimental: Primary human hepatocytes. Experiments with primary human hepatocytes were performed by CN-Bio (Cambridge, UK). Briefly, primary human hepatocytes (PHHs), human Kupffer cells (HKs) and human stellate cells (HSCs) were seeded onto CN-Bio's PhysioMimix LC12 MPS culture plates at 6×10^5 cells for PHHs and 6×10^4 cells for HKs and HSCs in 1.6 ml of CN-Bio's HEP-lean media with 5% FCS. Throughout the experiment the cells were maintained at a flow rate of 1 μl/s. After 24 hours (Day 1) of seeding, the media was changed to HEP-lean media and the cells were incubated until day 4 to allow the cells to form microtissues. At day 4 post seeding, media was changed to HEP-fat media and treated with DMSO or NCT (5, 15, and 40 μM). Media was replaced on days 6 and 8. Cells were harvested on day 10 for RNA extraction and culture media was collected for ELISA analysis.
as §2

Sirt3 mRNA = experiment: RT-PCR of mouse liver, Sirtuin3; format: in vivo; conditions: HFD+NCT vs HFD, FIG. 4E
Experimental: as §1, with “All animal experiments were approved by the Institutional Animal Care and Use Committee (IACUC) of the Sanford Burnham Prebys Medical Discovery Institute in accordance with national regulations. Sample size was chosen based on the prior study of NCT delivered by IP injection.” left out
as §2

PPARGC1A mRNA = experiment: RT-PCR of mouse liver, PPARGC1A; format: in vivo; conditions: HFD+NCT vs HFD, FIGS. 4A-4C
Experimental: as §1, with “All animal experiments were approved by the Institutional Animal Care and Use Committee (IACUC) of the Sanford Burnham Prebys Medical Discovery Institute in accordance with national regulations. Sample size was chosen based on the prior study of NCT delivered by IP injection.” left out
as §2

TNFα mRNA = experiment: RT-PCR of mouse liver, TNFα; format: in vivo; conditions: HFD+NCT vs HFD, FIG. 5B
Experimental: as §1, with “All animal experiments were approved by the Institutional Animal Care and Use Committee (IACUC) of the Sanford Burnham Prebys Medical Discovery Institute in accordance with national regulations. Sample size was chosen based on the prior study of NCT delivered by IP injection.” left out
as §2

T6PNE cells = experiment: Nitric oxide assay in T6PNE cells treated with palmitate; format: cell-based; conditions: 0.12 mM palmitate plus 15 μM NCT, 3 days, FIG. 5H
Experimental: T6PNE cells were maintained in RPMI (5.5 mM glucose, Corning) supplemented with 10% fetal bovine serum (FBS, Sigma-Aldrich) and 1% penicillin-streptomycin (pen-strep, Gibco) in 5% CO2 at 37° C. Cells were treated with […] palmitate plus 0 or 15 μM NCT for 3 days in 10 cm plates and harvested with 500 μL PBS. For tissue specimens, snap frozen mouse liver was weighed and homogenized with PBS. NO was measured with the QuantiChrom Nitric Oxide Assay kit (D2NO-100, BioAssay Systems). Homogenized samples (150 μL) were processed for deproteination with 8 μL ZnSO4 and 8 μL NaOH. For normalization, an aliquot of samples from T6PNE cells was taken for BCA assay before deproteination. Samples and standard from kit were incubated with reagents for 20 min at 60° C. and measured OD 540 nm.
150 mM Palmitate (Sigma-Aldrich) was prepared in 50% ethanol and precomplexed with 15% fatty acid-free BSA (Research Organics, Cleveland, OH, USA) in a 37° C. water shaker. BSA-precomplexed palmitate was used as a 12 mM stock solution for all assays with a final concentration of 0.12 mM palmitate in cell culture medium.

[2] = liver lysate, HFD+NCT vs HFD, 10 weeks

Compound: O=C(/C=C/c1ccc(O)c(O)c1)NCCc1ccc(O)cc1 [NCT, N-trans caffeoyltyramine]
- SDHA protein level in liver (SDHA): reverse the depression
- FAO activity in the presence of octanoyl CoA [1, 2]: increase
- baseline FAO activity in the absence of octanoyl CoA [1, 2]: increase
- overall FAO activity in the assay [1, 2]: unchanged; also recorded: non-significant
- fatty acid oxidation ([1]; mice fed HFD containing NCT vs HFD alone): increased
- cytochrome C mRNA levels in mouse livers (cytochrome C mRNA): non-significant
- IL-6 mRNA level in cultured human hepatocytes (IL-6 mRNA): decrease
- Sirt3 mRNA in mouse liver (Sirt3 mRNA): reverse the depression
- PPARGC1A(PGC1a) mRNA level in mouse liver (PPARGC1A mRNA): increase
- TNFα level in livers of mice on HFD (TNFα mRNA): decreased
- TNFα level in livers of mice on HFD (TNFα mRNA; listed as Compound A): decrease
- level of NO in cultured cells treated with palmitate (T6PNE cells): decrease
